“Also recorded” adds a separate entry of the source. Residues, ends and D or L forms follow the SMILES beside them. *: point of attachment. Cbz = O=C(OCc1ccccc1)*; CH2F = FC*
What was measured:
[1] = tested on: ASCs; test: ASC proliferation with Fas-L and inhibitors for 4 days, cell counts; assay type: cell-based, human
From the text: (§1) The dual effect of Fas-L on the apoptosis and proliferation of ASCs, can be mediated solely by canonical Fas-L signaling or through two distinct pathways. To distinguish between these possibilities, ASCs were either left untreated, treated with Fas-L only or treated simultaneously with Fas-L and with the pan-caspase inhibitor […], for 4 days. Importantly, to better evaluate the apoptotic cue of Fas-L, a different Fas-L derivative (mega-Fas-L), which induces high rates of apoptosis in passage 3 ASCs, was used in the current experiments. Sub-G1 proportions and cell numbers were determined by PI cell-cycle flow cytometry analysis and standard cell counts respectively. The experiment was repeated 3 times using cells from 3 independent patients.
Accordingly, cultured Passage 2-4 ASCs were treated with a combination of mega Fas-L, Z-VAD-fmk, LY294002 (PI3K inhibitor), AZD6244 (ERK-1/2 inhibitor) and SP600125 (JNK inhibitor) for 4 days.
After 4 days, cells were removed from plates by trypsin and cells were counted using a standard cell counter. The experiment was repeated 3 times using cells from 3 independent patients.
To test the effects of inhibitors on proliferation of mature ASCs (P2 and P3 ASCs), cells were seeded into 24-well plates (10.000 cells/well) and allowed to attach and grow for 24 h. Then, medium was exchanged for fresh normal growth medium or growth medium supplemented with Fas-L or with Fas-L and one of the inhibitors. Cells were then cultured for 4 days.
At the end of the incubation period, adherent cells were trypsinized, collected and counted with a TC10 Automated Cell Counter (Bio-rad).

[2] = tested on: ASCs; test: ASC apoptosis with Fas-L and inhibitors for 4 days, sub-G1 by PI cell-cycle flow cytometry; assay type: cell-based, human; conditions: Z-VAD-fmk added to mega-Fas-L
From the text: as §1
Cells were harvested and fixed with 70% ethanol/PBS, treated with RNaseA 0.4 mg/ml (Sigma) and stained with propidium iodide (PI) 0.1 mg/ml (Sigma).
All labeled cells were analyzed using a FACS Canto II flow cytometer (Becton Dickinson, San Jose, Calif., USA). At least 10.000 events were recorded. Data analysis was performed using the FlowJo software (Tree Star, Ashland, Oreg., USA).

Structure (SMILES)	ASC counts compared to cells treated with Fas-L only ([1]; P2-4 ASCs, mega Fas-L plus inhibitor, 4 days)	cell quantities ([1]; P2-4 ASCs, mega Fas-L, Z-VAD-fmk plus inhibitor, 4 days)	Fas-L-dependent proliferation of ASCs ([1]; inhibitor added to Fas-L)	cell yield ([1]; Fas-L and Z-VAD-fmk together, 4 days, vs untreated)	Fas-L-induced ASC proliferation ([1]; Z-VAD-fmk added to mega-Fas-L, 4 days)	cell expansion ([1]; Z-VAD-fmk only, 4 days)	Fas-L-induced apoptosis of ASCs (sub-G1) [2]
Cn1cnc2c(F)c(Nc3ccc(Br)cc3Cl)c(C(=O)NOCCO)cc21 [AZD6244]	reduced ASC counts	comparable to untreated control	could be inhibited				
COC(=O)C[C@H](NC(=O)[C@H](C)NC(=O)[C@@H](NC(=O)OCc1ccccc1)C(C)C)C(=O)CF [Z-VAD-fmk] (Cbz-Val-Ala-Asp(OMe)-CH2F)				doubled cell yield	not affected; also recorded: without impacting; also recorded: minor to negligible effect	No such increased expansion	considerably attenuated; also recorded: near-complete inhibition

Source: US20210137990A1, “METHODS FOR EXP ANDING ADIPOSE-DERIVED STEM CELLS” (CELLECT BIOTHERAPEUTICS LTD., priority 2018, published 2021)
